From patent publication US20230041743A1, “1,8-NAPHTHYRIDIN-2-ONE COMPOUNDS FOR THE TREATMENT OF AUTOIMMUNE DISEASE” (Hoffmann-La Roche Inc., priority 2019, published 2023)

What follows are compounds tested against T1, human TLR7 (Homo sapiens, UniProt Q9NYK1) (assay: HEK293-Blue-hTLR-7 cells assay (SEAP reporter, R848 stimulation)). Conditions: HEK293-Blue-hTLR7 cells, R848 ligand, 20 hrs incubation; read-out: HEK/hTLR7 IC50.
T1 construct: host or cells: HEK293 (HEK-Blue hTLR7)
T1 sequence (Q9NYK1 27-1049): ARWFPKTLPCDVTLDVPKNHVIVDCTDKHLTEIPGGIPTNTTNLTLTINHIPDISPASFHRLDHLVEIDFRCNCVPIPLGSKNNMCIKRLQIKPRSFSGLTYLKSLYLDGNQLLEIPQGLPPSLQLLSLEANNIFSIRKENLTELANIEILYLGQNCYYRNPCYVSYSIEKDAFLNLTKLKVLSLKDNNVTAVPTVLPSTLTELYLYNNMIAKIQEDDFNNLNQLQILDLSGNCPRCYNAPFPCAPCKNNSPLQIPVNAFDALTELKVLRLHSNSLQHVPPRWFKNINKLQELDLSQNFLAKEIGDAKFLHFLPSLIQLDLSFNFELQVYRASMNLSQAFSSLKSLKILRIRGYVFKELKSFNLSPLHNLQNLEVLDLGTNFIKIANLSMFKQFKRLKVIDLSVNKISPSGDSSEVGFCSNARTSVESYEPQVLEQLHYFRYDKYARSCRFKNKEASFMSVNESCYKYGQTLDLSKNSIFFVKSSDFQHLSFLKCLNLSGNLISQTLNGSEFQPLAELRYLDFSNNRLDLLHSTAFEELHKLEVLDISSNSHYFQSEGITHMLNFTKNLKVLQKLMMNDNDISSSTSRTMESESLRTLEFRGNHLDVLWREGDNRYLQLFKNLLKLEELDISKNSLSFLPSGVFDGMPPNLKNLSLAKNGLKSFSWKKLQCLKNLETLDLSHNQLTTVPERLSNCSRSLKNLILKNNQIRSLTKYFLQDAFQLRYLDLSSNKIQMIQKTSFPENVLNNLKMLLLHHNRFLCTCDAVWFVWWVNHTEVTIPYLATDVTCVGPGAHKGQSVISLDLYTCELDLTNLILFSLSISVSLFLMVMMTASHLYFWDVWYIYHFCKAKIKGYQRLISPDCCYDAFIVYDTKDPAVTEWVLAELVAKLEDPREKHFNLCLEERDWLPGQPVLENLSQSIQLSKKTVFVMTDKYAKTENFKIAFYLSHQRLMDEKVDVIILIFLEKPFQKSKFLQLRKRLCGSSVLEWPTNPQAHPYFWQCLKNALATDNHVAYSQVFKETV
Type: cell-based
From the text: HEK293-Blue-hTLR-7 Cells Assay:
A stable HEK293-Blue-hTLR-7 cell line was purchased from InvivoGen (Cat. #: hkb-htlr7, San Diego, Calif., USA). These cells were originally designed for studying the stimulation of human TLR7 by monitoring the activation of NF-κB. A SEAP (secreted embryonic alkaline phosphatase) reporter gene was placed under the control of the IFN-β minimal promoter fused to five NF-κB and AP-1-binding sites. The SEAP was induced by activating NF-κB and AP-1 via stimulating HEK-Blue hTLR7 cells with TLR7 ligands. Therefore the reporter expression was declined by TLR7 antagonist under the stimulation of a ligand, such as R848 (Resiquimod), for incubation of 20 hrs. The cell culture supernatant SEAP reporter activity was determined using QUANTI-Blue™ kit (Cat. #: rep-qb1, Invivogen, San Diego, Ca, USA) at a wavelength of 640 nm, a detection medium that turns purple or blue in the presence of alkaline phosphatase.
HEK293-Blue-hTLR7 cells were incubated at a density of 250,000-450,000 cells/mL in a volume of 170 μL in a 96-well plate in Dulbecco's Modified Eagle's medium (DMEM) containing 4.5 g/L glucose, 50 U/mL penicillin, […], […], 2 mM L-glutamine, 10% (v/v) heat-inactivated fetal bovine serum with addition of 20 μL test compound in a serial dilution in the presence of final DMSO at 1% and 10 μL of 20 uM R848 in above DMEM, perform incubation under 37° C. in a CO2 incubator for 20 hrs. Then 20 μL of the supernatant from each well was incubated with 180 μL Quanti-blue substrate solution at 37° C. for 2 hrs and the absorbance was read at 620˜655 nm using a spectrophotometer. The signaling pathway that TLR7 activation leads to downstream NF-κB activation has been widely accepted, and therefore similar reporter assay was modified for evaluating TLR7 antagonist.

C[C@@H]1CN(c2cc(=O)n(C)c3ncccc23)C[C@@H]2c3ccc(N4CC(C)(N)C4)cc3CN12 [Example 1, 4-[(4R,10bS)-8-(3-amino-3-methyl-azetidin-1-yl)-4-methyl-3,4,6,10b-tetrahydro-1H-pyrazino[2,1-a]isoindol-2-yl]-1-methyl-1,8-naphthyridin-2-one] and C[C@@H]1CN(c2cc(=O)n(C)c3ncccc23)C[C@@H]2c3ccc(N4CC[C@@](C)(N)C4)cc3CN12 [Example 4, 4-[(4R,10bS)-8-[(3R)-3-amino-3-methyl-pyrrolidin-1-yl]-4-methyl-3,4,6,10b-tetrahydro-1H-pyrazino[2,1-a]isoindol-2-yl]-1-methyl-1,8-naphthyridin-2-one] are within 1.5-fold of each other in IC50: 30.4 nM for the first, 39.5 nM for the second.

C[C@@H]1CN(c2cc(=O)n(C)c3ncccc23)C[C@@H]2c3ccc(N4CC5(CN(C)C5)C4)cc3CN12 [Example 2, 4-[(4R,10bS)-4-methyl-8-(6-methyl-2,6-diazaspiro[3.3]heptan-2-yl)-3,4,6,10b-tetrahydro-1H-pyrazino[2,1-a]isoindol-2-yl]-1-methyl-1,8-naphthyridin-2-one] and C[C@@H]1CN(c2cc(=O)n(C)c3ncccc23)C[C@@H]2c3ccc(N4CCC[C@](C)(N)C4)cc3CN12 [Example 15, 4-[(4R,10bS)-8-[(3S)-3-amino-3-methyl-1-piperidyl]-4-methyl-3,4,6,10b-tetrahydro-1H-pyrazino[2,1-a]isoindol-2-yl]-1-methyl-1,8-naphthyridin-2-one] are within 1.5-fold of each other in IC50: 11.5 nM for the first, 12 nM for the second.

C[C@@H]1CN(c2cc(=O)n(C)c3ncccc23)C[C@@H]2c3ccc(N4CC5(CNCCO5)C4)cc3CN12 [Example 3, 4-[(4R,10bS)-4-methyl-8-(5-oxa-2,8-diazaspiro[3.5]nonan-2-yl)-3,4,6,10b-tetrahydro-1H-pyrazino[2,1-a]isoindol-2-yl]-1-methyl-1,8-naphthyridin-2-one] and C[C@@H]1CN(c2cc(=O)n(C)c3ncccc23)C[C@@H]2c3ccc(N4CCOC5(CNC5)C4)cc3CN12 [Example 11, 4-[(4R,10bS)-4-methyl-8-(5-oxa-2,8-diazaspiro[3.5]nonan-8-yl)-3,4,6,10b-tetrahydro-1H-pyrazino[2,1-a]isoindol-2-yl]-1-methyl-1,8-naphthyridin-2-one] are within 1.5-fold of each other in IC50: 21.1 nM for the first, 30.5 nM for the second.

First: CO[C@@H]1CN(c2ccc3c(c2)CN2[C@H](C)CN(c4cc(=O)n(C)c5ncccc45)C[C@H]32)C[C@H]1N [Example 5, 4-[(4R,10bS)-8-[(3R,4R)-3-amino-4-methoxy-pyrrolidin-1-yl]-4-methyl-3,4,6,10b-tetrahydro-1H-pyrazino[2,1-a]isoindol-2-yl]-1-methyl-1,8-naphthyridin-2-one]
Second: CO[C@H]1CN(c2ccc3c(c2)CN2[C@H](C)CN(c4cc(=O)n(C)c5ncccc45)C[C@H]32)CC[C@@H]1N [Example 8, 4-[(4R,10bS)-8-[(3S,4S)-4-amino-3-methoxy-1-piperidyl]-4-methyl-3,4,6,10b-tetrahydro-1H-pyrazino[2,1-a]isoindol-2-yl]-1-methyl-1,8-naphthyridin-2-one]
The IC50 of the first is 2-fold higher: 38.1 nM for the first, 19.4 nM for the second.

First: C[C@@H]1CN(c2cc(=O)n(C)c3ncccc23)C[C@@H]2c3ccc(N4C[C@H]5NCCO[C@@H]5C4)cc3CN12 [Example 6, 4-[(4R,10bS)-8-[(4aR,7aR)-3,4,4a,5,7,7a-hexahydro-2H-pyrrolo[3,4-b][1,4]oxazin-6-yl]-4-methyl-3,4,6,10b-tetrahydro-1H-pyrazino[2,1-a]isoindol-2-yl]-1-methyl-1,8-naphthyridin-2-one]
Second: C[C@@H]1CN(c2cc(=O)n(C)c3ncccc23)C[C@@H]2c3ccc(N4CCN[C@@H](C)C4)cc3CN12 [Example 13, 4-[(4R,10bS)-4-methyl-8-[(3S)-3-methylpiperazin-1-yl]-3,4,6,10b-tetrahydro-1H-pyrazino[2,1-a]isoindol-2-yl]-1-methyl-1,8-naphthyridin-2-one]
The IC50 of the first is 4.8-fold higher: 62 nM for the first, 13 nM for the second.

C[C@@H]1CN(c2cc(=O)n(C)c3ncccc23)C[C@@H]2c3ccc(N4C[C@@H](N)[C@@H](F)C4)cc3CN12 [Example 7, 4-[(4R,10bS)-8-[(3R,4S)-3-amino-4-fluoro-pyrrolidin-1-yl]-4-methyl-3,4,6,10b-tetrahydro-1H-pyrazino[2,1-a]isoindol-2-yl]-1-methyl-1,8-naphthyridin-2-one] and CO[C@H]1CCN(c2ccc3c(c2)CN2[C@H](C)CN(c4cc(=O)n(C)c5ncccc45)C[C@H]32)C[C@@H]1N [Example 9, 4-[(4R,10bS)-8-[(3S,4S)-3-amino-4-methoxy-1-piperidyl]-4-methyl-3,4,6,10b-tetrahydro-1H-pyrazino[2,1-a]isoindol-2-yl]-1-methyl-1,8-naphthyridin-2-one] are within 1.5-fold of each other in IC50: 43.7 nM for the first, 62.6 nM for the second.

Compared with COC[C@@H]1CNCCN1c1ccc2c(c1)CN1[C@H](C)CN(c3cc(=O)n(C)c4ncccc34)C[C@H]21 [Example 10, 4-[(4R,10bS)-8-[(2S)-2-(methoxymethyl)piperazin-1-yl]-4-methyl-3,4,6,10b-tetrahydro-1H-pyrazino[2,1-a]isoindol-2-yl]-1-methyl-1,8-naphthyridin-2-one], C[C@@H]1CNCCN1c1ccc2c(c1)CN1[C@H](C)CN(c3cc(=O)n(C)c4ncccc34)C[C@H]21 [Example 17, 4-[(4R,10bS)-4-methyl-8-[(2R)-2-methylpiperazin-1-yl]-3,4,6,10b-tetrahydro-1H-pyrazino[2,1-a]isoindol-2-yl]-1-methyl-1,8-naphthyridin-2-one] is 3.2-fold lower in IC50: 9.1 nM for the first, 2.8 nM for the second.

Compared with C[C@@H]1CN(c2cc(=O)n(C)c3ncccc23)C[C@@H]2c3ccc(N4CCNCC4)cc3CN12 [Example 12, 4-[(4R,10bS)-4-methyl-8-piperazin-1-yl-3,4,6,10b-tetrahydro-1H-pyrazino[2,1-a]isoindol-2-yl]-1-methyl-1,8-naphthyridin-2-one], C[C@@H]1CN(c2ccc3c(c2)CN2[C@H](C)CN(c4cc(=O)n(C)c5ncccc45)C[C@H]32)CCN1 [Example 14, 4-[(4R,10bS)-4-methyl-8-[(3R)-3-methylpiperazin-1-yl]-3,4,6,10b-tetrahydro-1H-pyrazino[2,1-a]isoindol-2-yl]-1-methyl-1,8-naphthyridin-2-one] is 1.9-fold lower in IC50: 11.9 nM for the first, 6.4 nM for the second.

First: C[C@@H]1CN(c2cc(=O)n(C)c3ncccc23)C[C@@H]2c3ccc(N4CCC[C@@H](N)C4)cc3CN12 [Example 16, 4-[(4R,10bS)-8-[(3R)-3-amino-1-piperidyl]-4-methyl-3,4,6,10b-tetrahydro-1H-pyrazino[2,1-a]isoindol-2-yl]-1-methyl-1,8-naphthyridin-2-one]
Second: C[C@@H]1CN(c2cc(=O)n(C)c3ncccc23)C[C@@H]2c3ccc(N4CCC(C)(N)CC4)cc3CN12 [Example 18, 4-[(4R,10bS)-8-(4-amino-4-methyl-1-piperidyl)-4-methyl-3,4,6,10b-tetrahydro-1H-pyrazino[2,1-a]isoindol-2-yl]-1-methyl-1,8-naphthyridin-2-one]
The IC50 of the first is 1.6-fold higher: 15.9 nM for the first, 9.8 nM for the second. The second is the more potent here.

In the case of C[C@@H]1CN(c2cc(=O)n(C)c3ncccc23)C[C@@H]2c3ccc(N4C[C@@H]5C[C@H]4CN5)cc3CN12 [Example 19, 4-[(4R,10bS)-8-[(1S,4S)-2,5-diazabicyclo[2.2.1]heptan-2-yl]-4-methyl-3,4,6,10b-tetrahydro-1H-pyrazino[2,1-a]isoindol-2-yl]-1-methyl-1,8-naphthyridin-2-one], the IC50 is reported as 15.6 nM.
